# Measured values reported in patent US20240307374A1, “FORMULATION OF FURIN INHIBITOR FOR INHALATION” (BP ASSET V, INC., priority 2021, published 2024).
# Where two headings read alike, the source gives them in different places.
# Key:
# Format in all cases: physicochemical
# [1] = Solubility of freeform in acetone/H2O systems with various water activities; details: for solubility at 2 days: thermodynamic from solid
# Description: To measure the solubility of freeform in acetone/H2O systems with various water activities, the above experiments were re-performed with addition of aw=0.3 acetone/H2O system. The suspension sample was centrifuged to obtain precipitate and supernatants. Solubility was tested for the supernatants after filtration, and isolated precipitate was tested by XRPD.
# [2] = In situ salt solubility test (citric acid, fumaric acid); details: for solubility: filtrate, read-out: Concentration (in situ salt solubility)
# Description: The sample was almost clear (little solid was observed) and filtered for a solubility test.
# [3] = Solution stability in citrate buffers; details: 28 days
# Description: The stability samples were stored under 5° C. and 25° C. for 28 days, respectively. After 28 days storage, the stability samples were taken out for HPLC test and pH test.
# Waters H-class UPLC (ultra-performance liquid chromatography) was used for purity, solubility, assay and stability test. Detailed method is shown in Table 9-22, Table 9-23 and Table 9-24.
# Solid state stability = experiment: Solid state stability; design: key to FC (form change): N: The form was not changed; details: for Purity: initial purity 99.62%
# Description: Approximately 30 mg of each solid sample was added to an HPLC vial (sealed by Parafilm© and poked with several pinholes) and then stored at 25° C./60% RH, 40° C./75% RH and 60° C. for 28 days.
# After 1/3/7/14/28 days storage, solids were taken out for HPLC and XRPD to evaluate chemical and physical stability, respectively.
# [4] = Complexation stability constant test: solubility in HPβCD solutions; details: for solubility at 24 h: thermodynamic from solid
# Description: Additional solid was added into the sample to generate suspension if clear solution was obtained. The suspension was equilibrated via stirring (1000 rpm) for 24 hours. The suspension was centrifuged to obtain precipitate and supernatants. Solubility and pH was determined for the supernatants after filtration, and XRPD was obtained for the isolated precipitate.
# [5] = Solubility of freeform Type D with sugars
# Description: The samples were sonicated for about 2 minutes, and the samples were almost clear (little solid was observed) and filtered for clear solution, pH of the solutions were 3.5. About 68.5 mg lactose and sucrose were added into the two solutions, respectively. The two samples were clear after adding sugar, and pH of the two samples remained 3.5. pH of the two solutions was adjusted to 5.1 by adding 1 M NaOH, and no solid precipitated out after pH adjustment.
# The three solutions were stored under 5° C. for three days, and no solid precipitated out after cooling. The concentration and pH were tested for each sample.
# [6] = 1.1 equiv. of citric acid in water
# [7] = 1.1 equivalent of fumaric acid in water
# [8] = ~1 mg/mL in 10 mM citrate buffer (pH 4.3), 5° C.
# [9] = ~1 mg/mL in 10 mM citrate buffer (pH 4.3), 25° C.
# [10] = ~40 mg/mL in 100 mM citrate buffer (pH 4.1), 5° C.
# [11] = ~40 mg/mL in 100 mM citrate buffer (pH 4.1), 25° C.
# [12] = 30 mmol freeform Type D + 30 mmol citric acid, initial pH 3.6
# [13] = 50 mmol freeform Type D + 50 mmol citric acid + ~200 mmol lactose, initial pH 5.1
# [14] = 50 mmol freeform Type D + 50 mmol citric acid + ~200 mmol sucrose, initial pH 5.1
structure (smiles),measurement,setting,value
CC(=O)NCC1CCN(Cc2cc(Oc3ccc(N4CCN(CCC(=O)O)CC4)nc3)nc(-c3cc(Cl)cc(Cl)c3)c2)CC1 [Freeform Type A],solubility,"[1]; Acetone/H2O (605:395), aw 0.8, RT",10.265 (Type A) mg/mL
same,solubility at 2 days,"[1]; acetone/H2O (605:395), aw 0.8, organic solvent or mixture, Acetone/H2O (605:395), aw 0.8, RT",10.3 mg/mL
same,solubility at 2 days,"[1]; acetone/H2O (858:142), aw 0.6, organic solvent or mixture, Acetone/H2O (858:142), aw 0.6, RT",3.29 mg/mL
same,solubility at 2 days,"[1]; acetone/H2O (950:50), aw 0.4, organic solvent or mixture, Acetone/H2O (950:50), aw 0.4, RT",1.16 mg/mL
same,solubility at 2 days,"[1]; acetone/H2O (973:27), aw 0.3, organic solvent or mixture, Acetone/H2O (973:27), aw 0.3, RT",1.44 mg/mL
same,solubility at 2 days,"[1]; water (aw 1), water, H2O, aw 1, RT",0.01 mg/mL
CC(=O)NCC1CCN(Cc2cc(Oc3ccc(N4CCN(CCC(=O)O)CC4)nc3)nc(-c3cc(Cl)cc(Cl)c3)c2)CC1 [Freeform Type D],HPLC purity of filtrates,[2]; [6],99.9% Area %
same,pH,[2]; [6],3.4
same,HPLC purity of filtrates,[2]; [7],99.8% Area %
same,pH,[2]; [7],4.0
same,solubility,"[2]; water with 1.1 equivalent of citric acid, pH 3.4, thermodynamic from solid, 1.1 equiv. of citric acid in water",39.3 mg/mL
same,solubility,"[2]; water with 1.1 equivalent of fumaric acid, pH 4, thermodynamic from solid, 1.1 equivalent of fumaric acid in water",1.1 mg/mL
same,degradation,"[3]; 40 mg/mL in 100 mM citrate buffer, 5° C. and 25° C.",No significant degradation
same,Appearance,[3]; [8],yellow solution
same,Assay,[3]; [8],68.4%
same,Purity,[3]; [8],89.0 Area %
same,pH,[3]; [8],4.7
same,Appearance,[3]; [9],cloudy and yellow
same,Assay,[3]; [9],11.6%
same,Purity,[3]; [9],78.9 Area %
same,pH,[3]; [9],4.6
same,Appearance,[3]; [10],became cloudy
same,Assay,[3]; [10],95.0%
same,Purity,[3]; [10],99.7 Area %
same,pH,[3]; [10],4.8
same,Appearance,[3]; [11],remained a clear solution
same,Assay,[3]; [11],98.9%
same,Purity,[3]; [11],99.5 Area %
same,pH,[3]; [11],4.9
same,"degradation or form change (HPLC, XRPD)","Solid state stability; 25° C./60% RH, 40° C./75% RH and 60° C. for 28 days",No significant degradation or form change
same,FC (form change),"Solid state stability; 25° C./60% RH, 28 days",N
same,Purity,"Solid state stability; 25° C./60% RH, 28 days",99.6 area %
same,FC (form change),"Solid state stability; 40° C./75% RH, 1 day",N
same,Purity,"Solid state stability; 40° C./75% RH, 1 day",99.69 area %
same,FC (form change),"Solid state stability; 40° C./75% RH, 3 days",N
same,Purity,"Solid state stability; 40° C./75% RH, 3 days",99.56 area %
same,FC (form change),"Solid state stability; 40° C./75% RH, 7 days",N
same,Purity,"Solid state stability; 40° C./75% RH, 7 days",99.59 area %
same,FC (form change),"Solid state stability; 40° C./75% RH, 14 days",N
same,Purity,"Solid state stability; 40° C./75% RH, 14 days",99.69 area %
same,FC (form change),"Solid state stability; 40° C./75% RH, 28 days",N
same,Purity,"Solid state stability; 40° C./75% RH, 28 days",99.73 area %
same,FC (form change),"Solid state stability; 60° C., 1 day",N
same,Purity,"Solid state stability; 60° C., 1 day",99.74 area %
same,FC (form change),"Solid state stability; 60° C., 3 days",N
same,Purity,"Solid state stability; 60° C., 3 days",99.57 area %
same,FC (form change),"Solid state stability; 60° C., 7 days",N
same,Purity,"Solid state stability; 60° C., 7 days",99.51 area %
same,FC (form change),"Solid state stability; 60° C., 14 days",N
same,Purity,"Solid state stability; 60° C., 14 days",99.62 area %
same,FC (form change),"Solid state stability; 60° C., 28 days",N
same,Purity,"Solid state stability; 60° C., 28 days",99.66 area %
same,solubility at 24 h,"[4]; 5% (w/w) HPβCD solution, aqueous with cosolvent or surfactant or cyclodextrin, 5% (w/w) HPβCD, RT, 24 hours, final pH 7.3, read-out: Solubility",0.42 mg/mL
same,solubility at 24 h,"[4]; 5% (w/w) HPβCD solution, pH 7.3, aqueous with cosolvent or surfactant or cyclodextrin, 5% HPβCD (40.78 mmol/L), read-out: API Solubility",660 µM
same,solubility at 24 h,"[4]; 10% (w/w) HPβCD solution, aqueous with cosolvent or surfactant or cyclodextrin, 10% (w/w) HPβCD, RT, 24 hours, final pH 7.2, read-out: Solubility",0.94 mg/mL
same,solubility at 24 h,"[4]; 10% (w/w) HPβCD solution, pH 7.2, aqueous with cosolvent or surfactant or cyclodextrin, 10% HPβCD (81.56 mmol/L), read-out: API Solubility",1470 µM
same,solubility at 24 h,"[4]; 15% (w/w) HPβCD solution, aqueous with cosolvent or surfactant or cyclodextrin, 15% (w/w) HPβCD, RT, 24 hours, final pH 7.1, read-out: Solubility",1.42 mg/mL
same,solubility at 24 h,"[4]; 15% (w/w) HPβCD solution, pH 7.1, aqueous with cosolvent or surfactant or cyclodextrin, 15% HPβCD (122.34 mmol/L), read-out: API Solubility",2220 µM
same,solubility at 24 h,"[4]; 20% (w/w) HPβCD solution, aqueous with cosolvent or surfactant or cyclodextrin, 20% (w/w) HPβCD, RT, 24 hours, final pH 7.0, read-out: Solubility",2.09 mg/mL
same,solubility at 24 h,"[4]; 20% (w/w) HPβCD solution, pH 7, aqueous with cosolvent or surfactant or cyclodextrin, 20% HPβCD (163.11 mmol/L), read-out: API Solubility",3260 µM
same,solubility at 24 h,"[4]; 25% (w/w) HPβCD solution, aqueous with cosolvent or surfactant or cyclodextrin, 25% (w/w) HPβCD, RT, 24 hours, final pH 7.0, read-out: Solubility",2.89 mg/mL
same,solubility at 24 h,"[4]; 25% (w/w) HPβCD solution, pH 7, aqueous with cosolvent or surfactant or cyclodextrin, 25% HPβCD (203.89 mmol/L), read-out: API Solubility",4510 µM
same,form change during solubility evaluation (XRPD),"[4]; HPβCD solutions, 24 hours",No form change
same,complexation stability constant K^1:1,"[4]; HPβCD, Higuchi-Connors phase-solubility method",1529 M⁻¹
same,Concentration,[5]; [12],18110 µg/mL
same,End pH (24 hours),[5]; [12],3.6
same,Purity,[5]; [12],99.8 Area %
same,Concentration,[5]; [13],26450 µg/mL
same,End pH (24 hours),[5]; [13],5.1
same,Purity,[5]; [13],99.8 Area %
same,Concentration,[5]; [14],26500 µg/mL
same,End pH (24 hours),[5]; [14],5.3
same,Purity,[5]; [14],99.8 Area %
